Columns and labels:
GSK3a = GSK3a (Homo sapiens, UniProt P49840); experiment: biochemical; conditions: read-out: % enzyme activity, 1 μM; Run 1, Run 2
RIPK5 = molecular target: T1, RIPK5 (Homo sapiens, UniProt Q6XUX3); conditions: 1 μM; Run 1, Run 2
T1 sequence (Q6XUX3 1-929): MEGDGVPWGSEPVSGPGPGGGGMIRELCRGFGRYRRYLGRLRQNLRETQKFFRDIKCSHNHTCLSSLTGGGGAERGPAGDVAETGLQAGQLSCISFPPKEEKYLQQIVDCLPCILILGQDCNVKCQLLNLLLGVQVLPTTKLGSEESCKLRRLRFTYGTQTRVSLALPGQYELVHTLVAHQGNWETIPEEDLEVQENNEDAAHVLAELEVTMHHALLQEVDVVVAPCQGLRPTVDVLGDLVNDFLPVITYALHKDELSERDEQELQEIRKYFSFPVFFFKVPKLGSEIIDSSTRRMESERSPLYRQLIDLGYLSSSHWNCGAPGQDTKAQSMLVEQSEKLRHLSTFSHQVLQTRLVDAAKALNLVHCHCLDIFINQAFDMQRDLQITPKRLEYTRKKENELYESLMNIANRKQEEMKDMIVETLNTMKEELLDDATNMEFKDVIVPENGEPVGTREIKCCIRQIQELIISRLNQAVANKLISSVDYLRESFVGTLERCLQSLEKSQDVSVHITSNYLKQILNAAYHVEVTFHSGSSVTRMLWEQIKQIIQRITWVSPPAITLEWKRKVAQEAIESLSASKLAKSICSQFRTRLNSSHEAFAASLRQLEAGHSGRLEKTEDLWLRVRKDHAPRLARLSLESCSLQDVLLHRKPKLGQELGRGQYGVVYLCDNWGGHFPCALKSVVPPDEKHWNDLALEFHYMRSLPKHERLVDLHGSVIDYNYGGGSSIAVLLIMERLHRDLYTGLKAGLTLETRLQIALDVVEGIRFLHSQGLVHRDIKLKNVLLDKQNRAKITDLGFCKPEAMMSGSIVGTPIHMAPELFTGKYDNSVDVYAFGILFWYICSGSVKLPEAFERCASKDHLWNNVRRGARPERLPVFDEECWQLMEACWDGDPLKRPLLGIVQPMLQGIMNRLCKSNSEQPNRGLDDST

MARK2/PAR-1Ba = MARK2/PAR-1Ba (Homo sapiens, UniProt Q7KZI7); experiment: biochemical; conditions: read-out: % enzyme activity, 1 μM; Run 1, Run 2
Chain of MARK2/PAR-1Ba (Q7KZI7 whole entry): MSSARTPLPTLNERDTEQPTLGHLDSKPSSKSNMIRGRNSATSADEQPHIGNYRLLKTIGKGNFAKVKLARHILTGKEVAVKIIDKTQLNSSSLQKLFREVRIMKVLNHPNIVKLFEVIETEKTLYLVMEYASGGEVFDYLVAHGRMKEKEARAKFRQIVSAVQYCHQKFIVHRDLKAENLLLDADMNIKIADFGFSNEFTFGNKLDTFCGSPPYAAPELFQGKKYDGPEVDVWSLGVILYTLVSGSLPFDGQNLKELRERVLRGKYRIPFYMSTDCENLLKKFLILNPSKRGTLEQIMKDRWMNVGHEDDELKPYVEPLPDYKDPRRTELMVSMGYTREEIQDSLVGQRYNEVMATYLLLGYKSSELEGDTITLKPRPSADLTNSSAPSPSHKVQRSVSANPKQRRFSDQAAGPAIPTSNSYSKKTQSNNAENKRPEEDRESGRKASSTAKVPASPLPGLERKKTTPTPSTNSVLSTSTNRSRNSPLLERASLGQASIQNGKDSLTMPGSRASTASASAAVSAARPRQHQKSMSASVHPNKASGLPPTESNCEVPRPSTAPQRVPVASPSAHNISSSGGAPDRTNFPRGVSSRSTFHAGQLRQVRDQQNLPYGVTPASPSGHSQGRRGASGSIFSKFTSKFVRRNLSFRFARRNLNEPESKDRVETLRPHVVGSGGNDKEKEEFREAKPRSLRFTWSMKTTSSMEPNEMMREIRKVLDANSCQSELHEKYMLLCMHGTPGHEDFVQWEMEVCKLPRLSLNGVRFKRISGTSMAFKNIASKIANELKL

DYRK4 = molecular target: T2, DYRK4 (Homo sapiens, UniProt Q9NR20); conditions: 1 μM; Run 1, Run 2
T2 sequence (Q9NR20 1-520): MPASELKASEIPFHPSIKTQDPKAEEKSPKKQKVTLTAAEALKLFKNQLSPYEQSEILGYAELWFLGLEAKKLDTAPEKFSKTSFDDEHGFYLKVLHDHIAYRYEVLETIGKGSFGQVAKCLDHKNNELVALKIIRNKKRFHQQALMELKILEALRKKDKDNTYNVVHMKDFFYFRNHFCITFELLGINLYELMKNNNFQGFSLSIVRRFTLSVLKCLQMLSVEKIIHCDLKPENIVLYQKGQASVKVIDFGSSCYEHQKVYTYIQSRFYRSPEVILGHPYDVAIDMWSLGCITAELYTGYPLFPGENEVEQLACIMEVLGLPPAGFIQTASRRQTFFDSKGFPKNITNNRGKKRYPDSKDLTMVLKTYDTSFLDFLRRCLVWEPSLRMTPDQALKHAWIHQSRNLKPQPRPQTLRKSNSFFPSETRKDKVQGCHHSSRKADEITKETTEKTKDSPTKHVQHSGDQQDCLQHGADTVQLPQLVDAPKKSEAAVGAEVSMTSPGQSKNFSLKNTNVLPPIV

ALK2/ACVR1 = molecular target: T3, ALK2/ACVR1 (Homo sapiens, UniProt Q04771); experiment: biochemical; conditions: Run 1, Run 2; for % enzyme activity: 1 μM; for remaining activity at 1 µM: read-out: % enzyme activity, 1 μM
T3 construct: purchased Reaction Biology Corporation
T3 sequence (Q04771 21-509): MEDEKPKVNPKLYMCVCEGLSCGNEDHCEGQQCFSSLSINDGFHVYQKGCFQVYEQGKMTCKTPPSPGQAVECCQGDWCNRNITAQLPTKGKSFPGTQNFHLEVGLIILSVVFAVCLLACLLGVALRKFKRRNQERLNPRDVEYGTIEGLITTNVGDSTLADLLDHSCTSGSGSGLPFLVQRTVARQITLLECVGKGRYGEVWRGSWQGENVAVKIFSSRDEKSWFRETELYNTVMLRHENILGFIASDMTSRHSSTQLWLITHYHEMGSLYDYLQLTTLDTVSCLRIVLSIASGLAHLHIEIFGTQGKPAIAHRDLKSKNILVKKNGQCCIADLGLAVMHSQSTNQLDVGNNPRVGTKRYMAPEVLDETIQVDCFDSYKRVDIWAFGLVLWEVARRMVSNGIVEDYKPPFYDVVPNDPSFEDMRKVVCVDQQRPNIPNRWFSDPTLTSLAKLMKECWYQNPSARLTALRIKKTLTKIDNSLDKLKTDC

TESK2 = TESK2 (Homo sapiens, UniProt Q96S53); conditions: 1 μM; Run 1, Run 2
Chain of TESK2 (Q96S53 whole entry): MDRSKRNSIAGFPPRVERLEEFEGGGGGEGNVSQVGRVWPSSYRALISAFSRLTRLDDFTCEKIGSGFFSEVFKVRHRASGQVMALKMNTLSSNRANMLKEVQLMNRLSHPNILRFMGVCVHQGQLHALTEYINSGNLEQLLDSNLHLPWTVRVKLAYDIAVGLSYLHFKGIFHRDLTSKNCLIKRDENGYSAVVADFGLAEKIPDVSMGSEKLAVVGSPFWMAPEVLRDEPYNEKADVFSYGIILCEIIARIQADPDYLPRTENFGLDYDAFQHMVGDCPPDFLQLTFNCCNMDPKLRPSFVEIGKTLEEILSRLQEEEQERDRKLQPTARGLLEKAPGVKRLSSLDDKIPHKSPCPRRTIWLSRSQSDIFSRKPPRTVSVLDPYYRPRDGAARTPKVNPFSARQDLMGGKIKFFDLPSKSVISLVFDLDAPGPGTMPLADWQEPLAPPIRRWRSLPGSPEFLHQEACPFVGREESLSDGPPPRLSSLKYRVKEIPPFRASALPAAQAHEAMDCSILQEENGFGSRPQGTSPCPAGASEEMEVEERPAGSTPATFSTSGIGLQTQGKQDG

Chain of GSK3a (P49840 whole entry): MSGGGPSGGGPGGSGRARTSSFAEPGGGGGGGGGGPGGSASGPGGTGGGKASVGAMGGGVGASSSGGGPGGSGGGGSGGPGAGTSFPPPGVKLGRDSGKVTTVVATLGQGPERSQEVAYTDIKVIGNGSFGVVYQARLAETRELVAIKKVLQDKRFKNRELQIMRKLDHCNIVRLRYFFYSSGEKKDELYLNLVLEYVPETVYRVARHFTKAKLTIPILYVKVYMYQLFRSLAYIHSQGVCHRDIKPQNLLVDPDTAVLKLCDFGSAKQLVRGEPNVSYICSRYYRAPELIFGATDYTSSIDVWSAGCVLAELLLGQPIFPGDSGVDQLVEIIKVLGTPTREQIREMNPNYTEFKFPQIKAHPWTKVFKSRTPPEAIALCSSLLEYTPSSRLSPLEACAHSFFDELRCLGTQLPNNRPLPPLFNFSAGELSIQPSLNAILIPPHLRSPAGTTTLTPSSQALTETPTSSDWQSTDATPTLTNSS

| SMILES | remaining activity at 1 µM (GSK3a) | % enzyme activity (RIPK5) | remaining activity at 1 µM (MARK2/PAR-1Ba) | % enzyme activity (DYRK4) | % enzyme activity (ALK2/ACVR1) | remaining activity at 1 µM (ALK2/ACVR1) | % enzyme activity (TESK2) |
| --- | --- | --- | --- | --- | --- | --- | --- |
| COc1cc(-c2cncc(-c3ccc(N4CCN(C)CC4)cc3)c2C)cc(F)c1C(N)=O [Compound 26a, 2-Fluoro-6-methoxy-4-(4-methyl-5-(4-(4-methylpiperazin-1-yl)phenyl)pyridin-3-yl)benzamide] | 102% | 82.21% | 92.8% | 102.49% | 8.63% | 9.92% | 93.89% |
| COc1cc(-c2cncc(-c3ccc(N4C[C@@H](C)N(C)[C@@H](C)C4)cc3)c2C)cc(F)c1C(N)=O [Compound 26c, 2-Fluoro-6-methoxy-4-(4-methyl-5-(4-((3R,5S)-3,4,5-trimethylpiperazin-1-yl)phenyl)pyridin-3-yl)benzamide] | 102% | 86.47% | 104% | 100.24% | 11.70% | 13.7% | 92.03% |

Reference: PMC8213057, “Targeting ALK2: An Open Science Approach to Developing Therapeutics for the Treatment of Diffuse Intrinsic Pontine Glioma” (Journal of Medicinal Chemistry, 2020)
